In data set [1] the test system is Cyclin D1 and Survivin. Put plainly: Western blot of STAT3 downstream targets in medulloblastoma cells. Format: cell-based, human. The note with it: D283, D425, UW426, UW288 cells; 0.5 to 2.5 μM, 16 h. The text has this:
(§1) Cells was harvested and extracted using cell lysis buffer (Cell Signaling) supplemented with phosphatase and protease inhibitors. Tumors from mice were grinded in the liquid nitrogen, and extracted proteins using cell lysis buffer supplemented with phosphatase and protease inhibitors. Extracted protein samples were separated by 10% SDS-PAGE and transferred to polyvinylidene difluoride membranes. After blocking with TBS-T buffer containing 5% skim milk (Lab Scientific Inc) at room temperature for 1 h, each membrane was incubated at 4 °C overnight with one of the following primary antibodies at 1:1,000 dilution: rabbit anti-phosphorylated STAT3 (Y705), rabbit anti-STAT3, rabbit anti-phosphorylated STAT1 (Y701), rabbit anti-STAT1, rabbit anti-Cyclin D1, rabbit anti-Survivin, and rabbit anti-GAPDH. Subsequently, each membrane was washed with TBS-T and incubated with horseradish peroxidase-conjugated secondary antibody (1:10,000) at room temperature for 1.5 h. Proteins of interest were visualized using SUPERSIGNAL West Femto Maximum Sensitivity Substrate (Thermo, #34096). Quantification was performed using ImageJ.

The test system of data set [2] is INF-γ stimulated STAT1 phosphorylation. Briefly: INF-γ induced P-STAT1 in DaoY cells (Western blot). The class given is cell-based, human. To be noted: 1 and 2.5 μM for 4 h, then INF-γ 50 ng/mL 30 min.
From the text: as §1
(§2) To verify the selective toxicity of LLL12B, DaoY human medulloblastoma cell line was used and treated with LLL12B (1 and 2.5 μM) or DMSO for 4 h followed by induction of IL-6 or INF-γ (50 ng/mL) for 30 min. […]
Background: A western blot detects proteins with antibodies after separation by electrophoresis.

Data set [3] has as its system active caspase-3/7. Briefly: Apoptosis assay (Caspase-3/7 Fluorescence Assay Kit). The class given is cell-based, human. To be noted: D425, D283, UW426 cells; LLL12B 1 μM, cisplatin 2.5 μM, 5 h. As for the experimental part:
Cells were plated in 96-well plates (8000–12,000 cells/well) and allowed to adhere overnight. Cells were treated with LLL12B or DMSO only. After 5 h treatment, active caspase-3/7 were measured using Caspase-3/7 Fluorescence Assay Kit (Cayman, Ann Arbor, MI) according to the manufacture’s instruction. Briefly, cells were centrifuged in the plate (800 g, 5 min) and the culture medium was aspirated, and then 200 µL of assay buffer was added to each well to wash the cells and the supernatant was removed after centrifuge. After that, 100 µL of cell-based assay lysis buffer was added to each well with shaking for 30 min at room temperature. Subsequently, 90 µL of the supernatant from each well was transferred to a corresponding well in a new black 96-well plate and 10 µL of assay buffer was added to appropriate wells. The plate was incubated at 37 °C for 90 min followed by addition of 100 µL of the caspase-3/7 substrate solution. Finally, the fluorescence intensity of each well was read at excitation 485 nm and emission 535 nm. All treatments were performed in triplicate.

Data set [4] deals with D283 medulloblastoma cells. Put plainly: Tumorsphere formation, D283. The class given is cell-based, human. To be noted: LLL12B 0.5 and 1 μM and/or cisplatin 0.5 and 1 μM, 8 days. As to the method: (§3) Cells were seeded (10,000 cells/mL) in ultra-low attachment 6-wells plates and treated with different concentrations of LLL12B and/or cisplatin or DMSO alone for 8 days. One-half of the culture volume of fresh 3D Tumorsphere Medium XF was added every 4 days. Images were captured on a Nikon Eclipse TS100 microscope. Original magnification, × 10.

A short description of data set [5]: In vivo pharmacokinetics (PK) in mice dosed PO.
Data set [6] concerns D425 medulloblastoma cells. Put plainly: Tumorsphere formation, D425. Format: cell-based, human. The note with it: LLL12B 0.5 and 1 μM and/or cisplatin 0.5 and 1 μM, 8 days. As to the method: as §3
The test system of data set [7] is P-ERK. Briefly: Western blot of P-ERK in medulloblastoma cells. The class given is cell-based, human. To be noted: 0.5 to 2.5 μM, 4 or 8 h.
Data set [8] concerns D425 medulloblastoma cells. Put plainly: Pilot orthotopic tumor model in vivo. On the set-up: species or system mice.
Data set [9] concerns D425 medulloblastoma xenografts. Briefly: D425 tumor xenograft model in nude mice. Format: in vivo. To be noted: for STAT3 phosphorylation in tumors: Western blot, LLL12B 2.5 mg/kg and/or cisplatin 5 mg/kg. As for the experimental part:
(§4) All animal studies were carried out in accordance with the standard procedures approved by the Institutional Animal Care and Use Committee (IACUC) of University of Maryland School of Medicine and University of Florida respectively. Furthermore, our animal studies were performed in compliance with the ARRIVE guidelines. Cells (1 × 10^7 cells/sites) were suspended in PBS mixed with matrigel (1:1, Corning, # 354234) and injected subcutaneously into the flank region of 4 to 5 week-old female athymic nude mice (Envigo). When the volume of the tumors reached approximately 100 mm^3, mice were randomized into four groups: (1) LLL12B (2.5 mg/kg) treated orally once daily only, (2) cisplatin (5 mg/kg) intraperitoneal injection treated once every four days only, (3) combination of LLL12B (2.5 mg/kg) oral once daily and cisplatin (5 mg/kg) intraperitoneal injection once every four days and (4) vehicle only once daily. Tumor growth was determined by measuring the minor (W) and major (L) diameter once every other day with a caliper, and calculated according to the following equation: tumor volume = 0.5236 × L × W^2. Body weight and clinical signs were monitored once every other day. In vivo PK studies in mice were performed by Dr. Chenglong Li’s laboratory at the University of Florida.
Figure 10 Anti-neoplastic activity of LLL12B and cisplatin combined treatment of D425 medulloblastoma xenografts. (A) Tumor volumes. (B) Tumor weights. (C) Body weights. (D) Protein analysis of the representative tumor samples by western blots. Expression levels of p-STAT3 (Y705), STAT3, CyclinD1, Survivin, and GAPDH. D245 medulloblastoma cells (1 × 10^7 cells/tumor) were implanted subcutaneously into the flank region of 4 to 5 week-old female athymic nude mice. Mice were randomized into four groups (5 mice for each group) and treated with LLL12B (2.5 mg/kg, oral gavage, once daily) and/or cisplatin (5 mg/kg, intraperitoneal injection, once every 4 days) or vehicle alone.

For data set [10], the system named is D425 medulloblastoma cells. Briefly: MTT cell viability assay, D425. Format: cell-based, human. To be noted: 0.5 μM, 48 h, siRNA transfection experiment. As for the experimental part:
SignalSilence STAT3 siRNA I was purchased from Cell Signaling (#6580) and medulloblastoma cells were transfected using Lipofectamine 2000 reagent (Invitrogen). The sequence of STAT3 siRNA: GGUCCCUCAUCCUGUUUGU, ACAAACAGGAUGAGGGACC. AMBION SILENCER Negative Control siRNA (#AM4611) was purchased from Invitrogen. Cells were seeded in 96-well plates (8,000 cells/well) and allowed to adhere overnight. siRNA and Lipofectamine 2000 were diluted at 1:50 in Opti-MEM medium respectively. Gently mixed and incubated at room temperature for 5 min, and then the diluted siRNA was added to the diluted Lipofectamine 2000 reagent (1:1 ratio) with an additional incubation of 25 min. The final concentration of siRNA was 100 nM. After that, culture medium was replaced by Lipofectamine 2000 reagent: siRNA complexes and cultured for 24 h. After transfection, cells were treated with LLL12B or DMSO only for 48 h, and then cell viability was measured by MTT assay.
Cells were seeded in 96-well plates at a density of 3,000 cells. After overnight attachment, cells were treated with different concentrations of LLL12B and/or cisplatin or DMSO alone. After 72 h treatment, 20 μL of MTT solution was added for 4 h of additional culture, and then 150 μL of DMF solubilization solution was added with shaking overnight in the dark. Absorbance was measured at 595 nm. Combination index (CI) was calculated using ComuSyn software. […]
For orientation: Tetrazolium dyes change colour on reduction, which living cells bring about.

Data set [11] deals with D283 medulloblastoma xenografts. Put plainly: D283 tumor xenograft model in nude mice. The class given is in vivo. To be noted: for STAT3 phosphorylation in tumors: Western blot, LLL12B 2.5 mg/kg and/or cisplatin 5 mg/kg. As to the method: as §4
Figure 6 LLL12B suppressed tumor growth in medulloblastoma xenografts. (A) Tumor volume, (B) Tumor weights. (C) Tumor samples. (D) Body weights. (E) Western blot of tumor samples. The protein expression levels of P-STAT3(Y705), STAT3, and GAPDH. D283 cells (1 × 10^7 cells/tumor) were harvested and suspended in PBS and then implanted subcutaneously with matrigel (1:1 ratio) into the flank region of 4 to 5 week-old female athymic nude mice. Mice were randomized into three groups (6 mice for each group) and treated with LLL12B (2.5 mg/kg or 5 mg/kg, oral gavage, once daily).
Figure 9 LLL12B and cisplatin combination suppressed tumor growth in D283 medulloblastoma xenografts. (A) Tumor volumes. (B) Tumor weights. (C) Body weight. (D) Western blots to analyze protein expression in the representative tumor samples. Expression levels of p-STAT3(Y705), STAT3, CyclinD1, Survivin, and GAPDH. D283 medulloblastoma cells (1 × 10^7 cells/tumor) were implanted subcutaneously into the flank region of 4 to 5 week-old female athymic nude mice. Mice were randomized into four groups (5 mice for each group) and treated with LLL12B (2.5 mg/kg, oral gavage, once daily) and/or cisplatin (5 mg/kg, intraperitoneal injection, once every 4 days) or vehicle alone.

For data set [12], the system named is P-AKT. Briefly: Western blot of P-AKT in medulloblastoma cells. Format: cell-based, human. To be noted: 4 or 8 h.
In data set [13] the test system is STAT3 phosphorylation (Y705). Put plainly: Western blot of STAT3 phosphorylation in medulloblastoma cells. Format: cell-based, human.
From the text: as §1

The subject of data set [14] is IL-6 induced phosphorylation of STAT3. Briefly: IL-6 stimulated P-STAT3 in DaoY cells (Western blot). Format: cell-based, human. To be noted: 1 and 2.5 μM for 4 h, then IL-6 50 ng/mL 30 min.
From the text: as §1, §2

The subject of data set [15] is STAT3 protein. On the set-up: method as in PMID 32412740. To be noted: intact MCF-7 breast cancer cells; cited from earlier work.
The mark [16] stands for this setting: LLL12B 2.5 mg/kg oral daily and/or cisplatin 5 mg/kg ip every 4 days.

The source of these data is article PMC7985203, “LLL12B, a small molecule STAT3 inhibitor, induces growth arrest, apoptosis, and enhances cisplatin-mediated cytotoxicity in medulloblastoma cells” (Scientific Reports, 2021).

For orientation: AUC means the area under the concentration-time curve, a measure of exposure. For orientation: Cmax means the peak of the concentration-time curve. The term bioavailability denotes dose-corrected exposure relative to a reference, in per cent. As a reminder, the Tmax is the time at which the peak concentration occurs.

Structures are written as SMILES. Like-named read-outs stand apart in the source and are kept apart here.

With `CN(C)C(=O)Oc1cccc2c1C(=O)c1cccc(S(N)(=O)=O)c1C2=O` [LLL12B], the “expression of Cyclin D1 and Survivin” value in data set [1] was “downregulated”. Also, in [2], the “induction of phosphorylated STAT1 protein by INF-γ” value is “without affecting”. In addition, in data set [3], the “caspase-3/7 activation (apoptosis)” value is “increased”. Moreover, the tumorsphere formation entry in data set [4] is “numbers and sizes of tumorspheres decreased”; in data set [6] it was “numbers and sizes of tumorspheres decreased”. The “Cmax compared to LLL12” value in data set [5] (LLL12B 8 mg/kg vs LLL12 20 mg/kg) is “more than doubled”. Moreover, the AUC in data set [5] (mouse, in vivo, 8 mg/kg) was 1.36 µM·h. This molecule yielded a Cmax in data set [5] (mouse, in vivo, 8 mg/kg) of 278 nM. Moreover, the bioavailability in data set [5] (mouse, in vivo, 8 mg/kg, read-out: Bioavailability (F)) turned out to be 47.7%. In addition, the Tmax in data set [5] (mouse, in vivo, po, 8 mg/kg, one time 8 mg/kg, read-out: oral Tmax) is roughly 8 h; in data set [5] (mouse, in vivo, po, 8 mg/kg, read-out: Tmax), 7.68 h. Further, the P-ERK entry is listed as “did not generally inhibit” in [7] (D283 cells), “some inhibition” in data set [7] (UW288 cells) and “induced” in data set [7] (UW426 cells). The “survival of mice with tumors” value in data set [8] is recorded as “limited extension of the survival”. The body weights entry in [9] (setting [16]) and in data set [11] (setting [16]) was “little effect” throughout. For the same molecule, the “STAT3 phosphorylation in tumors” value in [9] and in data set [11] was “reduced” throughout. For the same molecule, the cell viability result in [10] is given as “could impede cell viability”. In addition, the “suppression of tumor growth and tumor weights vs vehicle” value in [11] (2.5 mg/kg oral gavage once daily) is given as ~ 40%; in [11] (5 mg/kg oral gavage once daily) it was ~ 75%. In addition, in data set [11] (2.5 or 5 mg/kg oral gavage once daily), the “body weight of mice” value was “no significant impact”. The “P-STAT3(Y705) level in tumors” value in data set [11] (2.5 or 5 mg/kg oral, Western blot vs vehicle) is given as “dose-dependently down-regulated”. Further, the P-AKT entry in [12] (D283 cells, 0.5 to 2.5 μM) is “induced”; in data set [12] (UW288 cells, 0.5 to 2.5 μM), “some inhibition”; in data set [12] (UW426 cells, 2.5 μM) it was “bound back”; in [12] (UW426 cells, 0.5 and 1.0 μM) it was “reduced”. In data set [13] (D283, D425, UW426, UW288 cells, 0.5 to 2.5 μM, 16 h), the “STAT3 phosphorylation (Y705)” value was “dose-dependently suppressed”. Further, the P-STAT3 levels entry in [13] (UW426, UW288, D283 cells, 0.5, 1.0, 2.5 μM, 4 and 8 h) is reported as “significantly reduced”. Besides, the “IL-6 induced phosphorylation of STAT3” value in [14] is given as “significantly inhibited”.
On to `NS(=O)(=O)c1cccc2c1C(=O)c1cccc(O)c1C2=O` [LLL12], for which, in data set [5] (20 mg/kg), the AUCall came to 0.0407 µM·h, the “Bioavailability (F)” value turned out to be 2.73%, the highest concentration (Cmax) turned out to be 176 nM and the Tmax worked out at 0.083 h. The “oral Tmax” value in data set [5] (one time 20 mg/kg) is on record as 5 min. The “survival (average)” value in data set [8] (vehicle 19 days) is 24 days. Moreover, in [15], the “binding to STAT3 protein in intact cells” value was “binds to STAT3 protein”.
As for `N.N.[Cl][Pt][Cl]` [cisplatin], the “caspase-3/7 activation (apoptosis)” value in data set [3] is reported as “increased”. The “STAT3 phosphorylation in tumors” value in [9] and in data set [11] was “reduce or partially reduce” throughout.
